Data taken from publication PMC6222614, “Disubstituted 4-Chloro-3-nitrophenylthiourea Derivatives: Antimicrobial and Cytotoxic Studies” (Molecules : A Journal of Synthetic Chemistry and Natural …, 2018).
In brackets after ≈: the same amount, converted by molar mass.

Tests used:
[1] = system: S. epidermidis MRSE 403/11; assay: MIC, hospital methicillin-resistant strain; type: cell-based; conditions: Staphylococcus epidermidis
Description: (§1) The antimicrobial activity of the compounds was tested on Gram-positive bacteria (Staphylococcus aureus NCTC 4163, Staphylococcus aureus ATCC 25923, Staphylococcus aureus ATCC 6538, Staphylococcus aureus ATCC 29213, Staphylococcus epidermidis ATCC 12228, Staphylococcus epidermidis ATCC 35984, Enterococcus faecalis ATCC 29212, Bacillus subtilis ATCC 6633, Bacillus cereus ATCC 11778, Micrococcus luteus ATCC 9341, Micrococcus luteus ATCC 10240); Gram-negative rods (Escherichia coli ATCC 10538, Escherichia coli ATCC 25922, Escherichia coli NCTC 8196, Proteus vulgaris NCTC 4635, Pseudomonas aeruginosa ATCC 15442, Pseudomonas aeruginosa NCTC 6749, Pseudomonas aeruginosa ATCC 27863, Bordetella bronchiseptica ATCC 4617) and yeasts (Candida albicans ATCC 10231, Candida albicans ATCC 90028, Candida parapsilosis ATCC 22019). Other microorganisms used were obtained from the collection of the Department of Pharmaceutical Microbiology, Medical University of Warsaw, Poland.
(§2) Antibacterial activity was examined by the disc-diffusion method under standard conditions using Mueller-Hinton II agar medium (Becton Dickinson) according to CLSI (previously NCCLS) guidelines. Antifungal activities were assessed using Mueller-Hinton agar + 2% glucose and 0.5 µg/mL Methylene Blue Dye Medium. Sterile filter paper discs (9 mm diameter, Whatman No 3 chromatography paper) were dripped with tested compound solutions (in DMSO) to load 400 μg of a given compound per disc. Dry discs were placed on the surface of appropriate agar medium. The results (diameter of the growth inhibition zone) were read after 18 h of incubation at 35 °C. Minimal Inhibitory Concentration (MIC) was tested by the twofold serial microdilution method (in 96-well microtiter plates) using Mueller-Hinton Broth medium (Beckton Dickinson) for bacteria or RPMI-1640 medium for Candida species according to CLSI guidelines. The stock solution of tested agent was prepared in DMSO and diluted in sterile water. Concentrations of tested agents ranged from 0.125 to 512 µg/mL. The final inoculum of all studied microorganisms was 10^5 CFU/ mL^−1 (colony forming units per mL). Minimal inhibitory concentrations (the lowest concentration of a tested agent that prevents visible growth of a microorganism) were read after 18 h (bacteria) or 24 h (yeasts) of incubation at 35 °C.

[2] = system: S. epidermidis MRSE 404/11; assay: MIC, hospital methicillin-resistant strain; type: cell-based; conditions: Staphylococcus epidermidis
Description: as §1, §2

[3] = system: S. epidermidis MRSE 411/11; assay: MIC, hospital methicillin-resistant strain; type: cell-based; conditions: Staphylococcus epidermidis
Description: as §1, §2

[4] = system: S. epidermidis MRSE 407/11; assay: MIC, hospital methicillin-resistant strain; type: cell-based; conditions: Staphylococcus epidermidis
Description: as §1, §2

[5] = system: S. epidermidis MRSE 412/11; assay: MIC, hospital methicillin-resistant strain; type: cell-based; conditions: Staphylococcus epidermidis
Description: as §1, §2

[6] = system: S. epidermidis MRSE 406/11; assay: MIC, hospital methicillin-resistant strain; type: cell-based; conditions: Staphylococcus epidermidis
Description: as §1, §2

[7] = system: S. epidermidis MRSE 422/11; assay: MIC, hospital methicillin-resistant strain; type: cell-based; conditions: Staphylococcus epidermidis
Description: as §1, §2

[8] = system: S. epidermidis MRSE 413/11; assay: MIC, hospital methicillin-resistant strain; type: cell-based; conditions: Staphylococcus epidermidis
Description: as §1, §2

[9] = system: S. epidermidis MRSE 409/11; assay: MIC, hospital methicillin-resistant strain; type: cell-based; conditions: Staphylococcus epidermidis
Description: as §1, §2

[10] = system: S. epidermidis MRSE 405/11; assay: MIC, hospital methicillin-resistant strain; type: cell-based; conditions: Staphylococcus epidermidis
Description: as §1, §2

M. luteus ATCC 9341 = assay: MIC, twofold serial microdilution; type: cell-based; conditions: Micrococcus luteus, ATCC9341; standard strain, 18 h, 35 °C
Description: as §1, §2

[11] = system: S. epidermidis ATCC 12228; assay: MIC, twofold serial microdilution; type: cell-based; conditions: Staphylococcus epidermidis, ATCC12228; standard strain, 18 h, 35 °C
Description: as §1, §2

S. aureus NCTC 4163 = assay: MIC, twofold serial microdilution; type: cell-based; conditions: Staphylococcus aureus, NCTC4163; standard strain, 18 h, 35 °C
Description: as §1, §2

S. aureus ATCC 29213 = assay: MIC, twofold serial microdilution; type: cell-based; conditions: Staphylococcus aureus, ATCC29213; standard strain, 18 h, 35 °C
Description: as §1, §2

B. cereus ATCC 11778 = assay: MIC, twofold serial microdilution; type: cell-based; conditions: Bacillus cereus, ATCC11778; standard strain, 18 h, 35 °C
Description: as §1, §2

B. subtilis ATCC 6633 = assay: MIC, twofold serial microdilution; type: cell-based; conditions: Bacillus subtilis, ATCC6633; standard strain, 18 h, 35 °C
Description: as §1, §2

S. aureus ATCC 6538 = assay: MIC, twofold serial microdilution; type: cell-based; conditions: Staphylococcus aureus, ATCC6538; standard strain, 18 h, 35 °C
Description: as §1, §2

M. luteus ATCC 10240 = assay: MIC, twofold serial microdilution; type: cell-based; conditions: Micrococcus luteus, ATCC10240; standard strain, 18 h, 35 °C
Description: as §1, §2

E. faecalis ATCC 29212 = assay: MIC, twofold serial microdilution; type: cell-based; conditions: Enterococcus faecalis, ATCC29212; standard strain, 18 h, 35 °C
Description: as §1, §2

[12] = system: S. epidermidis ATCC 35984; assay: MIC, twofold serial microdilution; type: cell-based; conditions: Staphylococcus epidermidis, ATCC35984; standard strain, 18 h, 35 °C
Description: as §1, §2

S. aureus ATCC 25923 = assay: MIC, twofold serial microdilution; type: cell-based; conditions: Staphylococcus aureus, ATCC25923; standard strain, 18 h, 35 °C
Description: as §1, §2

HIV-1 IIIB = assay: Anti-HIV-1 activity: protection of MT-4 cells from virus-induced cytopathogenicity (MTT); type: cell-based, Human Immunodeficiency Virus type-1; conditions: Human immunodeficiency virus 1, IIIB, MT4, 96 h; 50% protection of MT-4 cells from HIV-1 induced cytopathogenicity, MTT, 4-day incubation; read-out: HIV-1IIIB EC50
Source text: (§3) Cell line supporting the multiplication of Human Immunodeficiency Virus type-1 (HIV-1) was the CD4+ human T-cells, derived from human hematological tumors, containing an integrated HTLV-1 genome (MT-4). Cells were purchased from American Type Culture Collection (ATCC). Human Immunodeficiency Virus type-1 (HIV-1) IIIB laboratory strain was obtained from the supernatant of the persistently infected H9/IIIB cells (NIH 1983).
The activity of compounds against HIV-1 was based on inhibition of virus-induced cytopathogenicity in MT-4 cell acutely infected with a multiplicity of infection (m.o.i.) of 0.01. Briefly, 50 μL of RPMI containing 1 × 10^4 MT-4 cells were added to each well of flat-bottom microtiter trays, containing 50 μL of RPMI without or with serial dilutions of test compounds. Then, 20 μL of a HIV-1 suspension containing 100 CCID50 were added. After a 4-day incubation at 37 °C, cell viability was determined by the MTT method.

staphylococci = assay: MIC against staphylococci; type: cell-based; conditions: moderate activity
Description: as §1, §2

[13] = Cytotoxicity against mock-infected MT-4 cells (MTT); type: cell-based, human; conditions: human, concentration reducing viability of mock-infected MT-4 cells by 50%
Description: as §3
Exponentially growing MT-4 cells were seeded at an initial density of 1 × 10^5 cells/mL in 96-well plates in RPMI-1640 medium, supplemented with 10% fetal bovine serum (FBS), 100 units/mL penicillin G and 100 μg/mL streptomycin. Cell cultures were then incubated at 37 °C in a humidified, 5% CO2 atmosphere, in the absence or presence of serial dilutions of tested compounds. Cell viability was determined after 96 h at 37 °C by the 3-(4,5-dimethylthiazol-2-yl)-2,5-diphenyl-tetrazolium bromide (MTT) method.

| SMILES | MIC [1] [µg/mL] | MIC [2] [µg/mL] | MIC [3] [µg/mL] | MIC [4] [µg/mL] | MIC [5] [µg/mL] | MIC [6] [µg/mL] | MIC [7] [µg/mL] | MIC [8] [µg/mL] | MIC [9] [µg/mL] | MIC [10] [µg/mL] | MIC (M. luteus ATCC 9341) [µg/mL] | MIC [11] [µg/mL] | MIC (S. aureus NCTC 4163) [µg/mL] | MIC (S. aureus ATCC 29213) [µg/mL] | MIC (B. cereus ATCC 11778) [µg/mL] | MIC (B. subtilis ATCC 6633) [µg/mL] | MIC (S. aureus ATCC 6538) [µg/mL] | MIC (M. luteus ATCC 10240) [µg/mL] | MIC (E. faecalis ATCC 29212) [µg/mL] | MIC [12] [µg/mL] | other results |
| --- | --- | --- | --- | --- | --- | --- | --- | --- | --- | --- | --- | --- | --- | --- | --- | --- | --- | --- | --- | --- | --- |
| O=C(O)c1cn(C2CC2)c2cc(N3CCNCC3)c(F)cc2c1=O [Ciprofloxacin, reference compound] | 16 (≈ 48.3 µM) | 64 (≈ 193 µM) | 4 (≈ 12.1 µM) | 64 (≈ 193 µM) | 64 (≈ 193 µM) | 0.5 (≈ 1.51 µM) | 4 (≈ 12.1 µM) | 32 (≈ 96.6 µM) | 2 (≈ 6.04 µM) | 4 (≈ 12.1 µM) | 1 (≈ 3.02 µM) | 0.25 (≈ 0.754 µM) | 0.25 (≈ 0.754 µM) | 0.5 (≈ 1.51 µM) | 0.25 (≈ 0.754 µM) | < 0.12 | 0.25 (≈ 0.754 µM) | 2 (≈ 6.04 µM) | 1 (≈ 3.02 µM) | 0.25 (≈ 0.754 µM) | MIC (S. aureus ATCC 25923): 0.5 µg/mL (≈ 1.51 µM) |
| C=C(C)CNC(=S)Nc1ccc(Cl)c([N+](=O)[O-])c1 [Compound 27, 1-(4-chloro-3-nitrophenyl)-3-(2-methylprop-2-en-1-yl)thiourea] | 32 (≈ 112 µM) | 32 (≈ 112 µM) | 32 (≈ 112 µM) | 32 (≈ 112 µM) | 64 (≈ 224 µM) | 32 (≈ 112 µM) | 64 (≈ 224 µM) | 32 (≈ 112 µM) | 32 (≈ 112 µM) | 32 (≈ 112 µM) | 16 (≈ 56 µM) | 16 (≈ 56 µM) | 16 (≈ 56 µM) | 16 (≈ 56 µM) | 8 (≈ 28 µM) | 16 (≈ 56 µM) | 16 (≈ 56 µM) | 32 (≈ 112 µM) | 64 (≈ 224 µM) | 16 (≈ 56 µM) | MIC (S. aureus ATCC 25923): 16 µg/mL (≈ 56 µM); EC50 (HIV-1 IIIB): > 15.5 µM; melting point: 96 to 98 °C; MIC range towards staphylococci (staphylococci): 8 to 16 µg/mL; CC50 at 96 h [13]: 15.5 µM |
| O=[N+]([O-])c1cc(NC(=S)Nc2ccccc2)ccc1Cl [Compound 23, 1-(4-chloro-3-nitrophenyl)-3-phenylthiourea] | 16 (≈ 52 µM) | 16 (≈ 52 µM) | 16 (≈ 52 µM) | 16 (≈ 52 µM) | 32 (≈ 104 µM) | 16 (≈ 52 µM) | 16 (≈ 52 µM) | 16 (≈ 52 µM) | 16 (≈ 52 µM) | 16 (≈ 52 µM) | 4 (≈ 13 µM) | 16 (≈ 52 µM) | 16 (≈ 52 µM) | 16 (≈ 52 µM) | 8 (≈ 26 µM) | 8 (≈ 26 µM) | 16 (≈ 52 µM) | 8 (≈ 26 µM) | 16 (≈ 52 µM) | 16 (≈ 52 µM) | MIC (S. aureus ATCC 25923): 16 µg/mL (≈ 52 µM); EC50 (HIV-1 IIIB): > 23 µM; melting point: 163 to 165 °C; MIC range towards staphylococci (staphylococci): 8 to 16 µg/mL; CC50 at 96 h [13]: 23 µM |
